Consider two molecules from patent publication US10967023B2, “Preparation of a chinese medicinal composition including ginseng, ginkgo leaf and stigma croci” (priority 2014, dated 2021).

One test deals with thrombosis of rats. The test can be described thus: Artery-vein shunt thrombosis in rats (thrombus formation in vivo). The settings on record: compositions 3 g/kg, aspirin 0.0044 g/kg. Set-up: species or system SD rats. Here is the method: (§1) The same volume of saline was given to the Blank control group. The rats were administered once a day for 7 days.
Experiments of thrombus formation, in vivo: 1 h after 7 days of administration, the rats of the groups were hypnotized through intraperitoneal injection with 0.8% sodium pentobarbital, with a dose of 40 mg/kg referring to the artery-vein shunt thrombosis method [Zhang Jun Tian. Modern pharmacology experimental methods. Beijing: Beijing Medical University Press, 1998; 1216-1217], right common carotid artery and left external jugular vein were separated. Three sections of polyethylene plastic pipe were taken, the diameter of the middle section was 2 mm, the length was about 8.5 cm, the diameter of the two plastic pipe of the two ends were 1.5 mm, the length were 10 cm respectively. A No 4 operation silk thread that was weighed previously with a length of about 7 cm was placed in the plastic pipe in the middle section, wherein one end of the thread with the length of 0.5 cm was exposed to the pipe to fix the position, and a silk thread with a length of 6.5 cm was kept in the pipe, the polyethylene plastic pipe was filled with heparin solution, one end of the plastic tube was inserted into the left external jugular vein, the other end of the plastic tube was inserted into the right common carotid artery, then the bloodstream was opened immediately. […]

The test system of test [1] is ADP induced platelet aggregation of rats. The test can be described thus: Platelet aggregation inhibition test (ADP induced, PRP of dosed rats). The format is in vivo, SD rats. The settings on record: ADP 5 μmol/L. How it is done: as §1
Platelet aggregation inhibition test: 1 h after 7 days of administration to the rats of the groups, the rats were hypnotized according to the above method, a tube was inserted into the common carotid artery to collect blood, the blood was added 3.8% sodium citrate in a ratio of 1:9 to become anticoagulant, when it was centrifuged for 5 minutes at 500 rpm, the upper portion of the plasma was taken to be the platelet-rich plasma (PRP), the remaining part was centrifuged again for 15 minutes at 3,500 rpm, the supernatant was platelet poor plasma (the PPP), the number of platelet of PRP was counted with platelet counting instrument, the number of platelet of PRP was adjusted with PPP to about […]. The temperature of the sample tube was kept at 37° C. for 3 minutes, then 5 μL ADP was added (final concentration 5 μmol/L), stirring speed of the stirrer was 500 r/min, the space between the rows of the movement of the recording pen was recorded after adding, and the aggregation rate was calculated according to the following formula: Aggregation rate(%)=the itinerary of adding ADP×100%/0˜100% of the itinerary

For test [2], the system named is scopolamine hydrobromide induced acquired memory disorder model mice. The test can be described thus: Scopolamine hydrobromide induced acquired memory disorder model mice, jumping platform test. It counts as in vivo, ICR mice. The settings on record: scopolamine 6 mg/kg mice; compositions 4 g/kg, Huperzine 0.00008 g/kg, Tanakan 0.03 g/kg, 15 days. How it is done:
The animals were intragastric administered once a day at a dose of 20 mL/kg, distilled water was given to blank control group and model group, one time a day, lasted for 15 days, 50 minutes after the administration on the 14th day, saline was given to the mice of blank control group through intraperitoneal injection in a volume of 10 ml/kg, the rest animals were given scopolamine through injection (6 mg/kg). 10 minutes later, the mice were placed on the jumping program automatic controller, to adapt for 3 minutes, then power on, the mice were stimulated by electric shock for 5 times, when the mice were stimulated, they jump to the diving platform to avoid electric shock, trained 5 minutes to obtain memory. 60 minutes after the administration on the 15th day, the animals were placed on the jumping program automatic controller, the number of times that the mice left the jump platform and received electric shock and the time of occurrence (the incubation period) were determined (number of errors). The results were analyzed statistically (t test).

The test system of test [3] is reserpine induced acquired memory disorder model mice. The test can be described thus: Reserpine induced acquired memory disorder model mice, jumping platform test. The settings on record: reserpine 0.5 mg/kg mice; compositions 4 g/kg, Huperzine 0.00008 g/kg, Tanakan 0.03 g/kg, 15 days. It counts as in vivo, ICR mice. How it is done: (§2) Experimental grouping was the same as that of test example 5.
The animals were intragastric administered once a day at a dose of 20 mL/kg, distilled water was given to the blank control group and the model group, one time a day, lasted for 15 days. After the administration on the 14th day, saline was given immediately to the mice of the blank control group through back and neck subcutaneous injection in a volume of 10 ml/kg, the rest animals were given reserpine hydrochloride (0.5 mg/kg) through back and neck subcutaneous injection. 60 minutes after the injection, the mice were placed on the jumping program automatic controller, to adapt for 3 minutes, then power on, the mice were stimulated by electric shock for 5 times, when the mice were stimulated, they jump to the diving platform to avoid electric shock, trained 5 minutes to obtain memory. 60 minutes after the administration on the 15th day, the animals were placed on the jumping program automatic controller, the number of errors and the incubation period of mice within 5 minutes were determined. The results were analyzed statistically (t test).

The subject of test [4] is sodium nitrite induced consolidate memory disorder mice. The test can be described thus: Sodium nitrite induced consolidate memory disorder model mice, jumping platform test. The format is in vivo, ICR mice. Conditions: sodium nitrite 120 mg/kg mice; compositions 4 g/kg, Huperzine 0.00008 g/kg, Tanakan 0.03 g/kg, 15 days. How it is done: as §2
The animals were intragastric administered once a day at a dose of 20 mL/kg, distilled water was given to the animals of blank control group and model group, one time a day, lasted for 15 days. 60 minutes after the administration on the 14th day, the mice were placed on the jumping program automatic controller, to train for 5 minutes, and the mice were stimulated by electric shock for 5 times. After the treatment, saline was given immediately to the mice of comparative group through back and neck subcutaneous injection in a volume of 10 ml/kg, sodium nitrite (120 mg/kg) were injected to the rest of the animals. 60 minutes after the administration on the 15th day, the animals of the groups were placed on the jumping program automatic controller, the number of errors and the incubation period of mice within 5 minutes were determined. The results were analyzed statistically (t test).

The test system of a further test is VaD rats. The test can be described thus: MORRIS water maze in VaD rats (permanent ligation of bilateral common carotid artery). The format is in vivo, SD rats. Here is the method: (§3) The sham group and the model group were given gavages of distilled water of the same volume. 2 months, 3 months after the models were created (1 month and 2 months after the administration), the time of the duration of MORRIS water maze were measured. After the last measurement, blood was taken from abdomens aorta, the brain was taken quickly, and the left hemisphere was solidified with liquid nitrogen. In ice bath, with 0.15M HCLO4 homogenates (1 ml was added for 100 mg brain weight) 14000×g 4° C., centrifuged for 20 min, the supernatant was taken, filtered with 0.22 μm membrane, 10 μl was fed into the auto sampler, the content of Ach was determined using HPLC; right hemisphere, 4 for each group, were solidified with formalin, dehydrated, embedded, sliced, HE dyed for pathological examination, homogenates of six brain tissue, AchE, SOD activity and MDA content (colorimetric method) were measured; Indicators such as neuropeptide Y, β-EP in plasma were determined (RIA). The results were analyzed statistically (t test).

Test [5] relates to Ach in brains of VaD rats. The test can be described thus: Content of Ach in brains of VaD rats (HPLC). The format is in vivo, SD rats. Conditions: 2 months of administration, compositions 3 g/kg, Huperzine 0.00006 g/kg, Tanakan 0.02 g/kg. Here is the method: Mobile phase: Na2HPO4 (100 mmol/L), TMACl (0.5 mmol/L), OSA (2.0 mmo/L), MB reagent (0.005% v/v), diluted with redistilled water, 85% PH was adjusted to8.00 by H3PO4, filtered by 0.22 μm aqueous membrane.
Chromatographic conditions: ESA582 type binary pump system, ESA ACH-3 column (150×3 mm 5 μm I.D.), former ESA immobilized enzyme reactor before columns (ESA ACH-SPR, 3 cm), flow rate, 0.35 mL/min, column temperature, 35° C.
Test conditions: 5600 A electrochemical detector; 5040 type solid porous electrode (platinum working electrode, a solid state palladium reference electrode) potential: +300 mV.
The results were analyzed statistically (t test).

The next test concerns SOD, MDA of brain tissue. The test can be described thus: Activity of SOD and content of MDA in the brains of VaD rats. The format is in vivo, SD rats. Conditions: 2 months of administration, compositions 3 g/kg, Huperzine 0.00006 g/kg, Tanakan 0.02 g/kg. How it is done: as §3
In the next test the test system is plasma NPY, β-EP. The test can be described thus: Plasma NPY, β-EP of VaD rats (RIA). The format is in vivo, SD rats. Conditions: 2 months of administration, compositions 3 g/kg, Huperzine 0.00006 g/kg, Tanakan 0.02 g/kg. Here is the method: as §3
Test [6] concerns hippocampal pyramidal cell. The test can be described thus: Pathological examination of hippocampus of VaD rats (HE). It counts as in vivo, SD rats. Conditions: 2 months of administration. Here is the method:
as §3

Test [7] has as its system ischemic reperfusion and D-galactose induced learning and memory impairment mice. The test can be described thus: MORRIS water maze in mice with ischemic reperfusion and subcutaneous D-galactose induced learning and memory impairment. It counts as in vivo, ICR mice. Conditions: 8 weeks. How it is done: (§4) The mice were anaesthetized with chloral hydrate, incisions were made in the necks, ischemia and reperfusion surgery was applied: bilateral common carotid arteries were separated, were clipped by bulldog clamp for 20 minutes, loosened for 2 minutes, then were clipped again for 20 minutes then loosened, at the same time, the tails of the mice were cut, 0.5 mL blood was collected, repeated cerebral ischemia-reperfusion injury was formed, sutured the wounds of the rats then fed them in cages. 7 days after the operation, D-galactose (100 mg/kg, 10 mL/kg) was given to the mice through subcutaneous injection on the back, and simultaneously, the mice were intragastric administered (20 mL/kg) once a day, lasted for 8 weeks; for the sham group, common carotid arteries were separated without clipping, the same volume of saline was injected through subcutaneous injection on the back; for D-galactose group, common carotid arteries were separated without clipping, D-galactose (100 mg/kg, 10 mL/kg) was injected through subcutaneous injection on the back; the ischemia reperfusion group was received an ischemia reperfusion operation, the same volume of saline was injected through subcutaneous injection on the back. The sham group, complex model group, D-galactose group were given gavages of distilled water of the same volume.
(§5) 8 weeks after the administration, the mice were trained for 3 days in the MRRIS water maze, two times a day, the learning and memory behavior were determined on the 4th day, on the 5th day, the heads were cut to take the brains, the brains were formulated into 10% homogenates with saline, the activities of AchE, SOD, GSH-Px, the contents of biochemical indicators such as MDA, NO in the brain tissues were determined (colorimetry). The results were analyzed statistically (t test)

Test [8] deals with SOD, GSH-Px, MDA, NO of brain tissue. The test can be described thus: Activities of SOD, GSH-Px and contents of MDA, NO of brain tissue (ischemia-reperfusion + D-galactose mice). It counts as in vivo, ICR mice. The settings on record: 8 weeks, compositions 4 g/kg, Huperzine 0.00008 g/kg, Tanakan 0.03 g/kg. Here is the method:
as §4, §5

[9] abbreviates: ischemia-reperfusion + D-galactose mice, compositions 4 g/kg, Huperzine 0.00008 g/kg, Tanakan 0.03 g/kg.

The inhibition is the relative decrease from the control value, in per cent. With `CC(=O)Oc1ccccc1C(=O)O` [Aspirin], the inhibition at 4.4 mg/kg in the test on thrombosis of rats (Rattus norvegicus, 168 h, 7 days, versus control group, read-out: Inhibition rate (thrombosis)) came to 30.9%. For the same molecule, the “Wet weights of thrombus” value with thrombosis of rats (once a day 7 days, artery-vein shunt 20 minutes) was 0.056 ± 0.011 g. This molecule also showed a Platelet aggregation in [1] (rats dosed 7 days (compositions 3 g/kg, aspirin 0.0044 g/kg), PRP) of 23.27 ± 3.06 %. This molecule also displayed an aggregation inhibition rate in test [1] (rats dosed 7 days, versus control group) of 49.57%.
For `C/C=C1\[C@H]2C=C(C)C[C@]1(N)c1ccc(=O)[nH]c1C2` [Huperzine, huperzine A], in test [2], the “number of errors Within 5 minutes” value turned out to be 0.6 ± 0.6 and the “the incubation period Within 5 minutes” value stood at 281.6 ± 39.4 s. Besides, in test [3], the “number of errors Within 5 min” value stood at 0.6 ± 0.9 and the “the incubation period Within 5 min” value came to 243.1 ± 38.4 s. In addition, in test [4], the “The incubation time Within 5 min” value was 229.1 ± 94.6 s and the “number of errors Within 5 min” value is recorded as 0.5 ± 0.7. Also, the “time of duration in MORRIS water maze, 2 months after the model was created” value in the test on VaD rats (1 month of administration, compositions 3 g/kg, Huperzine 0.00006 g/kg, Tanakan 0.02 g/kg) is recorded as 24.6 ± 19.0 s. The “time of duration in MORRIS water maze, 3 months after the model was created” value in the test on VaD rats (2 months of administration, compositions 3 g/kg, Huperzine 0.00006 g/kg, Tanakan 0.02 g/kg) is 9.0 ± 5.2 s. Also, in the test with VaD rats (before administration), the “time of duration in MORRIS water maze, 1 month after the model was created” value stood at 58.6 ± 26.6 s. The Ach in test [5] is reported as 1992.6 ± 590.0 ng/g wet weight of brain tissue. For the same molecule, in the test on SOD, MDA of brain tissue, the MDA is 2.194 ± 0.251 μmol/mgprot and the SOD is recorded as 51.7 ± 9.6 U/mgprot. In the test with plasma NPY, β-EP, this molecule returned an NPγ of 847.7 ± 189.1 pg/mL and a β-EP of 1032.9 ± 109.5 pg/mL. Moreover, the “Pathological examination: arrangement of the hippocampal pyramidal cells” value in test [6] is on record as “slightly loose”. Further, in [7] (setting [9]), the “Length of path (MORRIS water maze)” value is recorded as 355.8 ± 234.1 cm and the “Time of duration (MORRIS water maze)” value is listed as 21.7 ± 14.6 s. For the same molecule, the “Search strategy (MORRIS water maze)” value in [7] (score: straight line type 1 point, tendency type 2, edge type 3, random type 4, mice) came to 2.4 ± 1.0 points. In addition, in test [8], the GSH-Px worked out at 28.58 ± 2.87 U/mgprot, the MDA amounted to 4.651 ± 0.832 nmol/mgprot, the NO stood at 1.442 ± 0.295 nmol/mgprot and the SOD is 159.8 ± 21.2 U/mgprot.
